Data taken from patent publication US20160333419A1, “GENE SIGNATURES ASSOCIATED WITH SENSITIVITY TO MDM2 INHIBITORS” (DAIICHI SANKYO COMPANY, LIMITED, priority 2014, published 2016).

How the values were obtained:
CAL-54 = assay: OncoPanel cytotoxicity assay; assay type: cell-based; details: Homo sapiens, 72 hour incubation
Procedure, shortened: (§1)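 Cells grown in RPMI 1640 with 10% FBS (or a special medium) at 37° C, 5% CO2 were treated 24 hours after seeding for 72 hours with 10 concentrations (3.16-fold dilutions, 0.1% DMSO final). Nuclei were dye-stained and imaged; IC50 was fit from percent of control relative cell count.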

CRO-AP5 = assay: OncoPanel cytotoxicity assay; assay type: cell-based; details: Homo sapiens, 72 hour incubation
Procedure, shortened: as §1

COR-L105 = assay: OncoPanel cytotoxicity assay; assay type: cell-based; details: Homo sapiens, 72 hour incubation
Procedure, shortened: as §1

DMS273 = assay: OncoPanel cytotoxicity assay; assay type: cell-based; details: Homo sapiens, DMS-273, 72 hour incubation
Procedure, shortened: as §1

NCI-H69 = assay: OncoPanel cytotoxicity assay; assay type: cell-based; details: Homo sapiens, 72 hour incubation
Procedure, shortened: as §1

OE21 = assay: OncoPanel cytotoxicity assay; assay type: cell-based; details: Homo sapiens, 72 hour incubation
Procedure, shortened: as §1

CTG-0069 Colorectal = assay: Champions TumorGraft model, tumor growth inhibition; assay type: in vivo, mice; details: 100 mg/kg/dose p.o./qd × 10, TGI evaluation Day 11
Description: (§2) Patient-derived xenograft models (Champions TumorGraftTM; Champions Oncology, Inc., Hackensack, N.J.) were used. Champions TumorGraftsTM provide a highly focused, accelerated translational platform, which is based upon the implantation of primary human tumors in immune-deficient mice followed by propagation of the resulting low-passage Champions TumorGraftsTM in a manner that preserves the biological characteristics of the original human tumor. […] The TumorGraftsTM models allow a comparison of gene expression analysis of patients' cancer samples and Champions TumorGraftTM samples by microarray expression analysis. Large numbers (e.g., 30,000) of genes are analyzed. […] Female immunocompromised nu/nu mice (Harlan) between 6-9 weeks of age were housed on irradiated […]-enriched 1⁄8'' corncob bedding ([…]) in individual HEPA ventilated cages (Innocage® IVC, Innovive USA) and were kept on a 12-hour light-dark cycle at 68-74° F. (20-23° C.) and 30-70% humidity. Animals were fed water ad libitum (reverse osmosis, 2 ppm C12) and an irradiated Test rodent diet (Teklad 2919) consisting of 19% protein, 9% fat, and 4% fiber. Animals were implanted bilaterally in the flank region with tumor fragments harvested from tumored host animals, each implanted from a specific passage lot. Pre-study tumor volumes were recorded for each experiment beginning approximately one week prior to its estimated start date. When tumors reached approximately 125-250 mm^3, animals were matched by tumor volume into treatment and control groups, and dosing was initiated (Day 0). Animals in all studies were tagged and followed individually throughout the experiment. Initial dosing for standard agents began on Day 0; animals in all groups were dosed by weight (0.01 ml per gram; 10 ml/kg). Dose concentration(s), route(s) of administration and schedule(s) for each group are listed in the Experimental Design section, wherein “p.o./qd×10” indicates orally (by mouth) daily for 10 days. The experimental design of the human tumor graft model study is presented below in Table 4. “n” indicates the number of animals per group; “ROA” indicates route of administration of the test agent, i.e., the MDM2i drug. Beginning on Day 0, tumor dimensions were measured twice weekly by digital caliper and data including individual and mean estimated tumor volumes (Mean TV±SEM) were recorded for each group. Tumor volume was calculated using the formula (1): TV=width^2×length×0.52. At study completion, percent tumor growth inhibition (% TGI) values were calculated and reported for each treatment group (T) versus control (C) using initial (i) and final (f) tumor measurements and the formula (2): % TGI=1-Tf-Ti/Cf-C. The tumor growth inhibition (TGI) values on the scheduled dates closest to the last administration are summarized Table 5 below. In this example, the study duration was defined by the tumor size of the vehicle control. In some cases, for example, that of CTG-0213 in Table 5, required a longer time period for the tumor to reach a threshold size. As a result, the test animals treated with the MDM2i Compound B were also left for a longer time period, e.g., 40 days in the case of CTG-0213, without MDM2i treatment. […] Thus, the evaluation of TGI was set to be near the end of the treatment period, such as around Day 7-11 (around Day 9).

CTG-0159 NSCLC = assay: as above; assay type: in vivo, mice; details: 100 mg/kg/dose p.o./qd × 10, TGI evaluation Day 11
Description: as §2

CTG-0201 Melanoma = assay: as above; assay type: in vivo, mice; details: 100 mg/kg/dose p.o./qd × 10, TGI evaluation Day 10
Description: as §2

CTG-0203 Melanoma = assay: as above; assay type: in vivo, mice; details: 100 mg/kg/dose p.o./qd × 10, TGI evaluation Day 11
Description: as §2

CTG-0204 Melanoma = assay: as above; assay type: in vivo, mice; details: 100 mg/kg/dose p.o./qd × 10, TGI evaluation Day 10
Description: as §2

CTG-0213 Melanoma = assay: as above; assay type: in vivo, mice; details: 100 mg/kg/dose p.o./qd × 10, TGI evaluation Day 7
Description: as §2

CTG-0282 Pancreatic = assay: as above; assay type: in vivo, mice; details: 100 mg/kg/dose p.o./qd × 10, TGI evaluation Day 11
Description: as §2

CTG-0292 Pancreatic = assay: as above; assay type: in vivo, mice; details: 100 mg/kg/dose p.o./qd × 10, TGI evaluation Day 11
Description: as §2

CTG-0500 Melanoma = assay: as above; assay type: in vivo, mice; details: 100 mg/kg/dose p.o./qd × 10, TGI evaluation Day 7
Description: as §2

CTG-0502 NSCLC = assay: as above; assay type: in vivo, mice; details: 100 mg/kg/dose p.o./qd × 10, TGI evaluation Day 10
Description: as §2

Row | Compound | IC50 (CAL-54) [nM] | IC50 (CRO-AP5) [nM] | IC50 (COR-L105) [nM] | IC50 (DMS273) [nM] | IC50 (NCI-H69) [nM] | IC50 (OE21) [nM] | % TGI (CTG-0069 Colorectal) [%] | % TGI (CTG-0159 NSCLC) [%] | % TGI (CTG-0201 Melanoma) [%] | % TGI (CTG-0203 Melanoma) [%] | % TGI (CTG-0204 Melanoma) [%] | % TGI (CTG-0213 Melanoma) [%] | % TGI (CTG-0282 Pancreatic) [%] | % TGI (CTG-0292 Pancreatic) [%] | % TGI (CTG-0500 Melanoma) [%] | % TGI (CTG-0502 NSCLC) [%]
1 | CC[C@@H]1CNC2(CC2)CN1C(=O)[C@@H]1C[C@@H](F)CN1C(=O)C1=C(C(C)C)N2C(=N[C@@](C)(c3ccc(Cl)nc3)[C@H]2c2ccc(Cl)c(F)c2)S1 [Compound A, [(5R,6S)-5-(4-Chloro-3-fluorophenyl)-6-(6-chloropyridin-3-yl)-6-methyl-3-(propan-2-yl)-5,6-dihydroimidazo[2,1-b][1,3]thiazol-2-yl][(2S,4R)-2-{[(6R)-6-ethyl-4,7-diazaspiro[2.5]oct-7-yl]carbonyl}-4-fluoropyrrolidin-1-yl]methanone] | 602 | 220 |  |  |  |  |  |  |  |  |  |  |  |  |  | 
2 | CC1(C)CCC2(CC1)N[C@@H](C(=O)N[C@@H]1CC[C@@H](C(N)=O)OC1)[C@H](c1ccnc(Cl)c1F)[C@]21C(=O)Nc2cc(Cl)ccc21 [Compound B, (3′R,4′S,5′R)—N-[(3R,6S)-6-carbamoyltetrahydro-2H-pyran-3-yl]-6″-chloro-4′-(2-chloro-3-fluoropyridin-4-yl)-4,4-dimethyl-2″-oxo-1″,2″-dihydrodispiro[cyclohexane-1,2′-pyrrolidine-3′,3″-indole]-5′-carboxamide] |  |  | 168 | 9080 | > 10000 | 9810 | 19 | −13 | −10 | 98 | 51 | 87 | −30 | 54 | 104 | 122
